Laboratory results published in patent US20020137929A1, “1 - (3-heterocyclylphenyl) isothiourea, -isourea, -guanidine and -amidine herbicidal agents” (Intellectual Property Department, BASF Aktiengesellschaft, priority 1998, published 2002).

Experiments:
ORYSAT (Rice, Tebonnet) [1] = assay: Rice tolerance to post-transplant applications, flooded paddy conditions (Table III); type: in vivo, Oryza sativa, (L.) Tebonnet
Protocol: (§1) Results of herbicide evaluation are expressed on a rating scale (0-9). The scale is based upon a visual observation of plant stand, vigor, malformation, size, chlorosis and overall plant appearance as compared with a control.
The tolerance of transplanted rice to post-transplanted herbicide applications is determined as follows: two ten-day-old rice seedlings (cv. Tebonnet) are transplanted into silt loam soil in 32 oz. plastic containers with a diameter of 10.5 cm and no drainage holes. After transplanting, the containers are flooded and the water level is maintained at 1.5 to 3 cm above the soil surface. Three days after transplanting, the flooded soil surface of the containers is treated with the selected aqueous/acetone 50/50 v/v mixture containing the test compounds to provide the equivalent of about 0.0313 to 0.500 kg/ha of active ingredient. The treated containers are placed on greenhouse benches, watered such that the water level is maintained as stated above, and cared for in accordance with conventional greenhouse procedures. Three to four weeks after treatment, the test is terminated and each container is examined and herbicidal effect rated according to the rating system provided in Example 37. The compounds evaluated are reported by compound number given in Example 37.
Plant species employed in this example are reported by header abbreviation, common name and scientific name.

ORYSAT (Rice, Tebonnet) [2] = assay: Rice tolerance to post-transplant applications, flooded paddy conditions (Table IV); type: in vivo, Oryza sativa, (L.) Tebonnet
Excerpt: as §1
Plastic containers containing weeds which are 3 to 5 cm tall and rice seedlings at the 1.5 to 2.5 leaf stage are flooded with water. The water is maintained at 1.5 to 3 cm above the soil surface for the duration of the experiment. Test compounds are applied as aqueous/ acetone mixtures 50/50 v/v directly into the flood water to provide the equivalent of about 0.0313 to 0.500 kg/ha of active ingredient. The treated containers are placed on greenhouse benches and cared for in accordance with conventional greenhouse procedures. Three to four weeks after treatment, the test is terminated and each container is examined and herbicidal effect rated according to the rating system provided in Example 37. The compounds evaluated are reported by compound number given in Example 37.

GALAP (Galium) [3] = assay: Postemergence herbicidal evaluation; type: in vivo, Galium aparine; conditions: for GALAP herbicidal rating: postemergence
Procedure, shortened: (§2)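 First, seedlings were raised for around two weeks. Next, test material in 50/50 acetone/water containing 0.5% TWEEN 20 was sprayed through a nozzle at 40 psi, equivalent to about 0.0156–0.500 kg/ha. Finally, after 4–5 weeks in the greenhouse, plants were rated 0–9.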

GALAP (Galium) [4] = assay: Preemergence herbicidal evaluation; type: in vivo, Galium aparine; conditions: rated 4-5 weeks after treatment
Procedure, shortened: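 Sown cups got a single aqueous acetone spray of test compound (roughly 0.0156–0.500 kg/ha) before seedlings emerged. Evaluation, 4–5 weeks on, used a 0–9 visual scale covering plant stand, vigor, size, malformation, chlorosis and general appearance compared with controls.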

ABUTH (Velvetleaf) = assay: Postemergence herbicidal evaluation; type: in vivo, Abutilon theophrasti; conditions: for ABUTH herbicidal rating: postemergence
Procedure, shortened: as §2

MOOVA (Monochoria) = assay: Postemergence weed control under flooded paddy conditions; type: in vivo, Monochoria vaginalis; conditions: postemergence weeds, 3-4 weeks after treatment
Procedure, shortened: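 Flood-water application, about 0.0313–0.500 kg/ha a.i. in aqueous/acetone 50/50 v/v; water depth 1.5–3 cm throughout. Weeds 3–5 cm, rice 1.5–2.5 leaf. Greenhouse; 0–9 visual rating vs control at 3–4 wk.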

CCOC(=O)CN1C(=O)C(CC(=O)O)SC1=Nc1cc(-n2c(=O)cc(C(F)(F)F)n(C)c2=O)c(Cl)cc1Cl (stereo not shown) [Compound 33, 2-{{2,4-Dichloro-5-[3,6-dihydro-3-methyl-2,6-dioxo-4-(trifluoromethyl)-1(2H)-pyrimidinyl]phenyl}-imino}-4-oxo-3,5-thiazolidinediacetic acid, 3-ethyl ester]
Herbicidal rating ORYSAT (rice tolerance) (ORYSAT (Rice, Tebonnet) [1]; in vivo): 0.0 | Herbicidal rating ORYSAT (rice tolerance) (ORYSAT (Rice, Tebonnet) [2]; in vivo): 0.0 | Postemergence herbicidal rating GALAP (GALAP (Galium) [3]; Rate 0.0158 kg/ha): 3.0 | Postemergence herbicidal rating GALAP (GALAP (Galium) [3]; Rate 0.0315 kg/ha): 4.0 | Postemergence herbicidal rating GALAP (GALAP (Galium) [3]; Rate 0.0630 kg/ha): 5.0 | Preemergence herbicidal rating GALAP (GALAP (Galium) [4]; rate 0.0156 kg/ha): 0.0 | Preemergence herbicidal rating GALAP (GALAP (Galium) [4]; rate 0.0313 kg/ha): 0.0 | Preemergence herbicidal rating GALAP (GALAP (Galium) [4]; rate 0.0625 kg/ha): 0.0 | Postemergence herbicidal rating ABUTH (ABUTH (Velvetleaf); Rate 0.0158 kg/ha): 9.0 | Postemergence herbicidal rating ABUTH (ABUTH (Velvetleaf); Rate 0.0315 kg/ha): 9.0 | Postemergence herbicidal rating ABUTH (ABUTH (Velvetleaf); Rate 0.0630 kg/ha): 9.0

CCOC(=O)CN1CC(=O)N(CC(=O)OCC)C1=Nc1cc(-n2c(=O)cc(C(F)(F)F)n(C)c2=O)c(F)cc1Cl [Compound 34, 2-{{2-Chloro-5-[3,6-dihydro-3-methyl-2,6-dioxo-4-(trifluoromethyl)-1(2H)-pyrimidinyl]-4-fluoro-phenyl}imino}-4-oxo-1,3-imidazolidinediacetic acid, diethyl ester]
Herbicidal rating ORYSAT (rice tolerance) (ORYSAT (Rice, Tebonnet) [1]; 0.0313 kg/ha, post-transplant rice, flooded paddy, rated 3-4 weeks after treatment): 3.0 | Herbicidal rating ORYSAT (rice tolerance) (ORYSAT (Rice, Tebonnet) [1]; 0.0625 kg/ha, post-transplant rice, flooded paddy, rated 3-4 weeks after treatment): 3.0 | Herbicidal rating ORYSAT (rice tolerance) (ORYSAT (Rice, Tebonnet) [1]; 0.1250 kg/ha, post-transplant rice, flooded paddy, rated 3-4 weeks after treatment): 4.0 | Herbicidal rating ORYSAT (rice tolerance) (ORYSAT (Rice, Tebonnet) [1]; 0.2500 kg/ha, post-transplant rice, flooded paddy, rated 3-4 weeks after treatment): 6.0 | Herbicidal rating ORYSAT (rice tolerance) (ORYSAT (Rice, Tebonnet) [2]; rate 0.0313 kg/ha, flooded paddy, post-transplant rice, 3-4 weeks after treatment): 3.0 | Herbicidal rating ORYSAT (rice tolerance) (ORYSAT (Rice, Tebonnet) [2]; rate 0.0625 kg/ha, flooded paddy, post-transplant rice, 3-4 weeks after treatment): 3.0 | Herbicidal rating ORYSAT (rice tolerance) (ORYSAT (Rice, Tebonnet) [2]; rate 0.1250 kg/ha, flooded paddy, post-transplant rice, 3-4 weeks after treatment): 4.0 | Herbicidal rating ORYSAT (rice tolerance) (ORYSAT (Rice, Tebonnet) [2]; rate 0.2500 kg/ha, flooded paddy, post-transplant rice, 3-4 weeks after treatment): 6.0 | Postemergence herbicidal rating GALAP (GALAP (Galium) [3]; Rate 0.0158 kg/ha): 4.0 | Postemergence herbicidal rating GALAP (GALAP (Galium) [3]; Rate 0.0315 kg/ha): 9.0 | Postemergence herbicidal rating GALAP (GALAP (Galium) [3]; Rate 0.0630 kg/ha): 6.0 | Preemergence herbicidal rating GALAP (GALAP (Galium) [4]; rate 0.0313 kg/ha): 0.0 | Preemergence herbicidal rating GALAP (GALAP (Galium) [4]; rate 0.0625 kg/ha): 7.0 | Preemergence herbicidal rating GALAP (GALAP (Galium) [4]; rate 0.1250 kg/ha): 7.0 | Preemergence herbicidal rating GALAP (GALAP (Galium) [4]; rate 0.2500 kg/ha): 9.0 | Postemergence herbicidal rating ABUTH (ABUTH (Velvetleaf); Rate 0.0158 kg/ha): 9.0 | Postemergence herbicidal rating ABUTH (ABUTH (Velvetleaf); Rate 0.0315 kg/ha): 9.0 | Postemergence herbicidal rating ABUTH (ABUTH (Velvetleaf); Rate 0.0630 kg/ha): 9.0

C[C@@H](C(=O)O)N1C(=O)CS/C1=N/c1cc(-n2c(=O)cc(C(F)(F)F)n(C)c2=O)c(F)cc1Cl [Compound 51, 2-{{2-Chloro-5-[3,6-dihydro-3-methyl-2,6-dioxo-4-(trifluoromethyl)-1(2H)-pyrimidinyl]-4-fluoro-phenyl}imino}-α-methyl-4-oxo-3-thiazolidineacetic acid, L-]
Herbicidal rating ORYSAT (rice tolerance) (ORYSAT (Rice, Tebonnet) [1]; in vivo): 0.0 | Herbicidal rating ORYSAT (rice tolerance) (ORYSAT (Rice, Tebonnet) [2]; in vivo): 0.0 | Postemergence herbicidal rating GALAP (GALAP (Galium) [3]; Rate 0.0158 kg/ha): 4.0 | Postemergence herbicidal rating GALAP (GALAP (Galium) [3]; Rate 0.0315 kg/ha): 9.0 | Postemergence herbicidal rating GALAP (GALAP (Galium) [3]; Rate 0.0630 kg/ha): 9.0 | Herbicidal rating MOOVA (MOOVA (Monochoria); rate 0.0625 kg/ha): 3.0 | Herbicidal rating MOOVA (MOOVA (Monochoria); rate 0.1250 kg/ha): 4.0 | Herbicidal rating MOOVA (MOOVA (Monochoria); rate 0.2500 kg/ha): 4.0 | Preemergence herbicidal rating GALAP (GALAP (Galium) [4]; rate 0.0156 kg/ha): 0.0 | Preemergence herbicidal rating GALAP (GALAP (Galium) [4]; rate 0.0313 kg/ha): 0.0 | Preemergence herbicidal rating GALAP (GALAP (Galium) [4]; rate 0.0625 kg/ha): 5.0 | Preemergence herbicidal rating GALAP (GALAP (Galium) [4]; rate 0.1250 kg/ha): 7.0 | Preemergence herbicidal rating GALAP (GALAP (Galium) [4]; rate 0.2500 kg/ha): 9.0 | Postemergence herbicidal rating ABUTH (ABUTH (Velvetleaf); Rate 0.0158 kg/ha): 9.0 | Postemergence herbicidal rating ABUTH (ABUTH (Velvetleaf); Rate 0.0315 kg/ha): 9.0 | Postemergence herbicidal rating ABUTH (ABUTH (Velvetleaf); Rate 0.0630 kg/ha): 9.0

CC(C)C[C@@H](C(=O)O)N1C(=O)CSC1=Nc1cc(-n2c(=O)cc(C(F)(F)F)n(C)c2=O)c(F)cc1Cl [Compound 71, α-Isobutyl-2-{{2-chloro-5-[3,6-dihydro-3-methyl-2,6-dioxo-4-(trifluoromethyl)-1(2H)-pyrimidinyl]-4-fluorophenyl}imino}-4-oxo-3-thiazolidineacetic acid, L-]
ORYSAT herbicidal effect rating (rice tolerance) (ORYSAT (Rice, Tebonnet) [1]; in vivo): 4.0 | Herbicidal rating ORYSAT (rice tolerance) (ORYSAT (Rice, Tebonnet) [2]; in vivo): 4.0 | GALAP herbicidal rating (GALAP (Galium) [3]; rate 0.0158 kg/ha): 4.0 | GALAP herbicidal rating (GALAP (Galium) [3]; rate 0.0315 kg/ha): 6.0 | GALAP herbicidal rating (GALAP (Galium) [3]; rate 0.0630 kg/ha): 7.0 | Preemergence herbicidal rating GALAP (GALAP (Galium) [4]; rate 0.0156 kg/ha): 0.0 | Preemergence herbicidal rating GALAP (GALAP (Galium) [4]; rate 0.0313 kg/ha): 0.0 | Preemergence herbicidal rating GALAP (GALAP (Galium) [4]; rate 0.0625 kg/ha): 0.0 | Preemergence herbicidal rating GALAP (GALAP (Galium) [4]; rate 0.1250 kg/ha): 9.0 | Preemergence herbicidal rating GALAP (GALAP (Galium) [4]; rate 0.2500 kg/ha): 6.0 | ABUTH herbicidal rating (ABUTH (Velvetleaf); rate 0.0158 kg/ha): 9.0 | ABUTH herbicidal rating (ABUTH (Velvetleaf); rate 0.0315 kg/ha): 9.0 | ABUTH herbicidal rating (ABUTH (Velvetleaf); rate 0.0630 kg/ha): 9.0
